Patent US20030092638A1, “Protopanaxadiol and protopanaxatriol and their use as anti-cancer agents” (priority 2001, published 2003)
Where two headings read alike, the source gives them in different places.

Assays:
[1] = system: MCF7 cells; conditions: MCF7 (drug sensitive)
Description: (§1) Cells were either treated with various concentrations of paclitexal alone or in the presence of 20 μg/ml Rh2, 6 μg/ml PPT or PPD.

[2] = system: B16 melanoma tumor cells
Description: Cells were treated with various concentrations of the compounds and the viability was measured 24 hours post treatment.

[3] = system: MCF7r cells; conditions: MCF7r (drug resistant)
Description: as §1

[4] = system: MCF7 cells; assay: cells; conditions: Homo sapiens, MCF7, read-out: IC50 of taxol
Description: as §1

[5] = system: MCF7r cells; assay: cells; conditions: Homo sapiens, read-out: IC50 of taxol
Description: as §1

Structure (SMILES) | Enhancement of IC50 of taxol versus taxol only ([1]; compound at 6 μg/ml) | Tumor inhibitory effect (cytotoxicity) compared with Rh2 [2] | Enhancement of IC50 of taxol versus taxol only ([3]; compound at 6 μg/ml) | Enhancement of IC50 of taxol versus taxol only ([1]; compound at 20 μg/ml) | Enhancement of IC50 of taxol versus taxol only ([3]; compound at 20 μg/ml) | IC50 [4] [µM] | IC50 [5] [µM]
CC(C)=CCCC(C)(O)[C@H]1CC[C@]2(C)[C@@H]1[C@H](O)C[C@@H]1[C@@]3(C)CC[C@H](O)C(C)(C)[C@@H]3CC[C@]12C (stereo in doubt) [Protopanaxadiol, protopanaxadiol] | (18 fold | more potent tumor inhibitory effect than Rh2 | (29517 fold | – | – | – | –
CC(C)=CCC[C@](C)(O)[C@H]1CC[C@]2(C)[C@@H]1[C@H](O)C[C@@H]1[C@@]3(C)CC[C@H](O)C(C)(C)[C@@H]3[C@@H](O)C[C@]12C [Protopanaxatrial, protopanaxatriol] | (4.9 fold | more potent tumor inhibitory effect than Rh2 | (1744 fold | – | – | – | –
CC(C)=CCC[C@](C)(O)[C@H]1CC[C@]2(C)[C@@H]1[C@H](O)C[C@@H]1[C@@]3(C)CC[C@H](O[C@@H]4O[C@H](CO)[C@@H](O)[C@H](O)[C@H]4O)C(C)(C)[C@@H]3CC[C@]12C [Rh2, 3-O-β-D-glucopyranosyl-20(s)-protopanaxadiol, reference compound] | – | – | – | (3.65 fold | (4470 fold | – | –
CC(=O)O[C@H]1C(=O)[C@@]2(C)[C@H]([C@H](OC(=O)c3ccccc3)[C@]3(O)C[C@H](OC(=O)[C@H](O)[C@@H](NC(=O)c4ccccc4)c4ccccc4)C(C)=C1C3(C)C)[C@]1(OC(C)=O)CO[C@@H]1C[C@@H]2O [Taxol, paclitaxel] | – | – | – | – | – | 0.225 | 0.93
